Measurements: US20230089867A1, “CYCLIC PENTAMER COMPOUNDS AS PROPROTEIN CONVERTASE SUBTILISIN/KEXIN TYPE 9 (PCSK9) INHIBITORS FOR THE TREATMENT OF METABOLIC DISORDER” (Novartis AG, priority 2018, published 2023)

Target: human PCSK9 (Homo sapiens, UniProt Q8NBP7)
Test: PCSK9 ligand binding TR-FRET assay (interference with binding of human PCSK9 to human LDLR)
Details: for Max % inhibition: PCSK9 FRET assay, efficacy (Amax), 100% = 1 uM unlabeled human PCSK9, 0% = DMSO; for IC50: TR-FRET, human PCSK9 Alexa Fluor 647 / human LDLR extracellular domain-Europium Kryptate, read-out: PCSK9 FRET Assay IC50
Summary of the method: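 Threefold compound dilutions were pre-incubated 30 min with PCSK9, after which 4 nM Europium Kryptate-tagged human LDLR ectodomain was added for a further 2 h.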

human PCSK9, sequence (Q8NBP7 153-692): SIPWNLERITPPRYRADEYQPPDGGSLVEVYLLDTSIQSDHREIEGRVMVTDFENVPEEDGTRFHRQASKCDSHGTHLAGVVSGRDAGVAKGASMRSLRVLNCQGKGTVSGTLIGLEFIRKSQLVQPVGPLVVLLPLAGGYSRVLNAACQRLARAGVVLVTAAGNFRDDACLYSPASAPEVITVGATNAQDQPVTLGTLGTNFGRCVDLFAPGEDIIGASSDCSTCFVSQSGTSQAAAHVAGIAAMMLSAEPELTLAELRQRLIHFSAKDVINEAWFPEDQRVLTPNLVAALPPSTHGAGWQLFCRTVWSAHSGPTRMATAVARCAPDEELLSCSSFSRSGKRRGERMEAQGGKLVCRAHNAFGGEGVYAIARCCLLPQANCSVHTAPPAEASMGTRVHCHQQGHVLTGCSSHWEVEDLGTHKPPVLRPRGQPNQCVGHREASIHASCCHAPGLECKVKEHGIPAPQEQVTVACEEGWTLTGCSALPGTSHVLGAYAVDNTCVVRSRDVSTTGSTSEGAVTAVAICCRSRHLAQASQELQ
human PCSK9, sequence (Q8NBP7 31-152 partner limits assumed): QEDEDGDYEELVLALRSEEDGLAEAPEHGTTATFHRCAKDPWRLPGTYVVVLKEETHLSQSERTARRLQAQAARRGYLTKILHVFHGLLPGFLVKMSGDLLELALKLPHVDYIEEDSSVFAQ

| Compound | Max % inhibition [%] | IC50 [nM] |
| --- | --- | --- |
| COC[C@@H]1NC(=O)[C@H](C)N(Cc2ccc(Cl)cc2Oc2ccc(-c3cnc(CN(C)C)n3C)cc2)C(=O)C[C@@H](C)C(=O)N(C)[C@H]2CCCC[C@@H]2NC(=O)C[C@H](Cc2ccc(Cl)cc2)N(C)C1=O [Compound 64, (4S,7S,10S,14R,16aS,20aS)-11-(4-chloro-2-(4-(2-((dimethylamino)methyl)-1-methyl-1H-imidazol-5-yl)phenoxy)benzyl)-4-(4-chlorobenzyl)-7-(methoxymethyl)-5,10,14,16-tetramethylhexadecahydrobenzo[l][1,4,7,11,14]pentaazacyclooctadecine-2,6,9,12,15(3H)-pentaone] | 79.08 | 9 |
| COC[C@@H]1NC(=O)[C@H](C)N(Cc2ccc(Cl)cc2Oc2ccc(-c3cnc(C(C)N4CCCC4)n3C)cc2)C(=O)C[C@@H](C)C(=O)N(C)[C@@H](C)CNC(=O)C[C@H](Cc2ccc(Cl)cc2)N(C)C1=O (stereo in doubt) [Compound 103, (2S,5S,8S,13S,16R)-1-(4-chloro-2-(4-(1-methyl-2-((S)-1-(pyrrolidin-1-yl)ethyl)-1H-imidazol-5-yl)phenoxy)benzyl)-8-(4-chlorobenzyl)-5-(methoxymethyl)-2,7,13,14,16-pentamethyl-1,4,7,11,14-pentaazacyclooctadecane-3,6,10,15,18-pentaone] | 106.00 | 10.1 |
| COC[C@@H]1NC(=O)[C@H](C)N(Cc2ccc(Cl)cc2Oc2ccc(-c3cnc4n3CCN(C(=O)C3CCOC3)C4)cc2)C(=O)C[C@@H](Cc2ccccc2)C(=O)N(C)[C@@H](C)CNC(=O)C[C@H](Cc2ccc(Cl)cc2)N(C)C1=O (stereo partly drawn) [Compound 133, (2S,5S,8S,13S,16R)-16-benzyl-1-(4-chloro-2-(4-(7-(tetrahydrofuran-3-carbonyl)-5,6,7,8-tetrahydroimidazo[1,2-a]pyrazin-3-yl)phenoxy)benzyl)-8-(4-chlorobenzyl)-5-(methoxymethyl)-2,7,13,14-tetramethyl-1,4,7,11,14-pentaazacyclooctadecane-3,6,10,15,18-pentaone] | 93.15 | 5.8 |
| COC[C@@H]1NC(=O)[C@H](C)N(Cc2c(C)cccc2Oc2ccc(-c3cnc(CN(C)C)n3C)cc2)C(=O)C[C@@H](Cc2ccccc2)C(=O)N(C)[C@@H](C)CNC(=O)C[C@H](Cc2ccc(Cl)cc2)N(C)C1=O [Compound 88, (2S,5S,8S,13S,16R)-16-benzyl-8-(4-chlorobenzyl)-1-(2-(4-(2-((dimethylamino)methyl)-1-methyl-1H-imidazol-5-yl)phenoxy)-6-methylbenzyl)-5-(methoxymethyl)-2,7,13,14-tetramethyl-1,4,7,11,14-pentaazacyclooctadecane-3,6,10,15,18-pentaone] | 90.30 | 40.1 |
| COC[C@@H]1NC(=O)[C@H](C)N(Cc2ccc(Cl)cc2Oc2ccc(-c3cncc(C4=CCNCC4)c3)cc2)C(=O)C[C@@H](Cc2ccccc2)C(=O)N(C)[C@@H](C)CNC(=O)C[C@H](Cc2ccc(Cl)cc2)N(C)C1=O [Compound 136, (2S,5S,8S,13S,16R)-16-benzyl-1-(4-chloro-2-(4-(1′,2′,3′,6′-tetrahydro-[3,4′-bipyridin]-5-yl)phenoxy)benzyl)-8-(4-chlorobenzyl)-5-(methoxymethyl)-2,7,13,14-tetramethyl-1,4,7,11,14-pentaazacyclooctadecane-3,6,10,15,18-pentaone] | 96.16 | 5 |
| COC[C@@H]1NC(=O)[C@H](C)N(Cc2ccc(Cl)cc2Oc2ccc(-c3cnc(CN(C)C)n3C)cc2)C(=O)C[C@@H](Cc2ccccc2)C(=O)N(C)[C@@H](C(=O)O)CNC(=O)C[C@H](Cc2ccc(Cl)cc2)N(C)C1=O [Compound 177, (2S,5S,8S,13R,16R)-16-benzyl-1-(4-chloro-2-(4-(2-((dimethylamino)methyl)-1-methyl-1H-imidazol-5-yl)phenoxy)benzyl)-8-(4-chlorobenzyl)-5-(methoxymethyl)-2,7,14-trimethyl-3,6,10,15,18-pentaoxo-1,4,7,11,14-pentaazacyclooctadecane-13-carboxylic acid] | 107.53 | 9.8 |

Next, values leading:

| Max % inhibition [%] | IC50 [nM] | Compound |
| --- | --- | --- |
| 106.17 | 1.3 | COCCN(C)C(=O)C[C@H]1C(=O)N[C@@H](COC)C(=O)N(C)[C@@H](Cc2ccc(Cl)cc2)CC(=O)N[C@H]2CCCC[C@@H]2N(C)C(=O)[C@H](Cc2ccccc2)CC(=O)N1Cc1ccc(Cl)cc1Oc1ccc(-c2cnc(CN(C)C)n2C)cc1 [Compound 239, 2-((4S,7S,10S,14R,16aS,20aS)-14-benzyl-11-(4-chloro-2-(4-(2-((dimethylamino)methyl)-1-methyl-1H-imidazol-5-yl)phenoxy)benzyl)-4-(4-chlorobenzyl)-7-(methoxymethyl)-5,16-dimethyl-2,6,9,12,15-pentaoxodocosahydrobenzo[l][1,4,7,11,14]pentaazacyclooctadecin-10-yl)-N-(2-methoxyethyl)-N-methylacetamide] |
| 102.97 | 1.4 | COC[C@@H]1NC(=O)[C@H](CC(=O)OC(C)(C)C)N(Cc2ccc(Cl)cc2Oc2ccc(-c3cnc(CN(C)C)n3C)cc2)C(=O)C[C@@H](Cc2ccccc2)C(=O)N(C)[C@H]2CCCC[C@@H]2NC(=O)C[C@H](Cc2ccc(Cl)cc2)N(C)C1=O [Compound 237, tert-butyl 2-((4S,7S,10S,14R,16aS,20aS)-14-benzyl-11-(4-chloro-2-(4-(2-((dimethylamino)methyl)-1-methyl-1H-imidazol-5-yl)phenoxy)benzyl)-4-(4-chlorobenzyl)-7-(methoxymethyl)-5,16-dimethyl-2,6,9,12,15-pentaoxodocosahydrobenzo[l][1,4,7,11,14]pentaazacyclooctadecin-10-yl)acetate] |
| 99.28 | 0.9 | COC[C@@H]1NC(=O)[C@H](C)N(Cc2ccc(C)cc2Oc2ccc(-c3cnc(CN(C)C)n3C)cc2)C(=O)C[C@@H](Cc2ccccc2)C(=O)N(C)[C@@H](C)CNC(=O)C[C@H](Cc2ccc(Cl)cc2)N(C)C1=O [Compound 240, (2S,5S,8S,13S,16R)-16-benzyl-8-(4-chlorobenzyl)-1-(2-(4-(2-((dimethylamino)methyl)-1-methyl-1H-imidazol-5-yl)phenoxy)-4-methylbenzyl)-5-(methoxymethyl)-2,7,13,14-tetramethyl-1,4,7,11,14-pentaazacyclooctadecane-3,6,10,15,18-pentaone] |
| 46.03 | 77.8 | COC[C@@H]1NC(=O)[C@H](C)N(Cc2c(Cl)cccc2Oc2ccc(-c3cnc(CN(C)C)n3C)cc2)C(=O)C[C@@H](C)C(=O)N(C)[C@@H](C)CNC(=O)C[C@H](Cc2ccc(Cl)cc2)N(C)C1=O [Compound 230, (2S,5S,8S,13S,16R)-1-(2-chloro-6-(4-(2-((dimethylamino)methyl)-1-methyl-1H-imidazol-5-yl)phenoxy)benzyl)-8-(4-chlorobenzyl)-5-(methoxymethyl)-2,7,13,14,16-pentamethyl-1,4,7,11,14-pentaazacyclooctadecane-3,6,10,15,18-pentaone] |
